Test results from publication PMC12396409, “Screening and hit evaluation of a microbial metabolite library against the pathogenic Plasmodium falciparum and Toxoplasma gondii parasites” (International Journal for Parasitology: Drugs and Drug …, 2025).
Read-outs that look alike come from different tables or passages of the source.

Legend:
[1] = system: P. falciparum 3D7 parasites; assay: P. falciparum growth inhibition assay, 1-cycle (72 h treatment), SYBR DNA staining (library screen at 2 μg/mL and dose-response); type: cell-based, Plasmodium falciparum
[2] = system: P. falciparum 3D7 parasites; assay: P. falciparum growth inhibition assay, 2-cycle (120 h treatment), delayed-death screen and dose-response; type: cell-based, Plasmodium falciparum
[3] = system: T. gondii RH strain (RH-Tub-eYFP) tachyzoites; assay: microbe, parasite or virus in culture; type: cell-based, Toxoplasma gondii; details: for percent parasite growth at 2 µg/mL: Toxoplasma gondii
[4] = Plasmodium falciparum, 3D7, P. falciparum, 72 h, screen at 2 μg/mL, replicate 1, read-out: Pf_72h_%Growth_Rep1
[5] = Plasmodium falciparum, 3D7, P. falciparum, 72 h, screen at 2 μg/mL, replicate 2, read-out: Pf_72h_%Growth_Rep2
[6] = Plasmodium falciparum, 3D7, P. falciparum, 120 h, screen at 2 μg/mL, replicate 1, read-out: Pf_120h_%Growth_Rep1
[7] = Plasmodium falciparum, 3D7, P. falciparum, 120 h, screen at 2 μg/mL, replicate 2, read-out: Pf_120h_%Growth_Rep2
[8] = 72 h, T. gondii, 72 h, screen at 2 μg/mL, replicate 1, read-out: Tg_72h_%Growth_Rep1
[9] = 72 h, T. gondii, 72 h, screen at 2 μg/mL, replicate 2, read-out: Tg_72h_%Growth_Rep2
[10] = P. falciparum 3D7, 72 h, parasite screen at 2 μg/mL, % growth, replicate 1
[11] = P. falciparum 3D7, 72 h, parasite screen at 2 μg/mL, % growth, replicate 2
[12] = P. falciparum 3D7, 120 h, parasite screen at 2 μg/mL, % growth, replicate 1
[13] = P. falciparum 3D7, 120 h, parasite screen at 2 μg/mL, % growth, replicate 2
[14] = T. gondii, 72 h, parasite screen at 2 μg/mL, % growth, replicate 1
[15] = T. gondii, 72 h, parasite screen at 2 μg/mL, % growth, replicate 2
[16] = library screen at 2 μg/mL, 72 h, % growth, replicate 1
[17] = library screen at 2 μg/mL, 72 h, % growth, replicate 2
[18] = library screen at 2 μg/mL, 120 h, % growth, replicate 1
[19] = library screen at 2 μg/mL, 120 h, % growth, replicate 2

For O=c1[nH]c2ccccc2c(-c2ccccc2)c1O [Viridicatin], which activity at 2 µg/mL [1, 4] is on record?
Its activity at 2 µg/mL is 91.8%.

What about the activity at 2 µg/mL [1, 5] of the same compound?
The activity at 2 µg/mL was 125%.

And the activity at 2 µg/mL [2, 6]?
The activity at 2 µg/mL was 106%.

And the activity at 2 µg/mL [2, 7]?
Its activity at 2 µg/mL is 104%.

And the percent parasite growth at 2 µg/mL [3, 8]?
The percent parasite growth at 2 µg/mL was 145%.

And the percent parasite growth at 2 µg/mL [3, 9]?
Its percent parasite growth at 2 µg/mL is 80.5%.

With CO[C@H]1[C@H](O)[C@@H](O)[C@H](n2c3c(Cl)cccc3c3c4c(c5c6cccc(Cl)c6[nH]c5c32)C(=O)NC4=O)O[C@@H]1CO [Rebeccamycin] as the compound, how does the activity at 2 µg/mL ([1]; Plasmodium falciparum, 3D7; P. falciparum, 2 μg/mL, 72 h; read-out: 1) Growth (%) at 72 h) read?
Its activity at 2 µg/mL is 21.6%.

What about the activity at 2 µg/mL ([1]; Plasmodium falciparum, 3D7, P. falciparum, 72 h, parasite screen 2 μg/mL, % growth, replicate 1, read-out: Pf_72h_%Growth_Rep1) of the same compound?
Its activity at 2 µg/mL is 22.6%.

What about the activity at 2 µg/mL ([1]; Plasmodium falciparum, 3D7, P. falciparum, 72 h, parasite screen 2 μg/mL, % growth, replicate 2, read-out: Pf_72h_%Growth_Rep2) of the same compound?
Its activity at 2 µg/mL is 20.5%.

What about the “3) Fold change (72 h/120 h)” value ([2]; P. falciparum, growth at 72 h / growth at 120 h, 2 μg/mL) of the same compound?
Its value is 1.2.

And the activity at 2 µg/mL ([2]; Plasmodium falciparum, 3D7; P. falciparum, 2 μg/mL, 120 h; read-out: 2) Growth (%) at 120 h)?
Its activity at 2 µg/mL is 18.4%.

And the activity at 2 µg/mL ([2]; Plasmodium falciparum, 3D7, P. falciparum, 120 h, parasite screen 2 μg/mL, % growth, replicate 1, read-out: Pf_120h_%Growth_Rep1)?
The activity at 2 µg/mL was 22.3%.

What about the activity at 2 µg/mL ([2]; Plasmodium falciparum, 3D7, P. falciparum, 120 h, parasite screen 2 μg/mL, % growth, replicate 2, read-out: Pf_120h_%Growth_Rep2) of the same compound?
The activity at 2 µg/mL was 14.5%.

What about the percent parasite growth at 2 µg/mL ([3]; 72 h, T. gondii, 72 h, parasite screen 2 μg/mL, % growth, replicate 1, read-out: Tg_72h_%Growth_Rep1) of the same compound?
Its percent parasite growth at 2 µg/mL is 35.4%.

And the percent parasite growth at 2 µg/mL ([3]; 72 h, T. gondii, 72 h, parasite screen 2 μg/mL, % growth, replicate 2, read-out: Tg_72h_%Growth_Rep2)?
The percent parasite growth at 2 µg/mL was 70.9%.

What does the source list for CCCCCC(=O)OC1C(C)OC(OC2C(C)OC(OC3C(CC=O)CC(C)C(O)C=CC=CCC(C)OC(=O)CC(O)C3OC)C(O)C2N(C)C)CC1(C)O (stereo not drawn) [BIA-L1365]?
Pf_72h_%Growth_Rep1 ([1]; P. falciparum 3D7, 72 h, library screen at 2 μg/mL, % growth, replicate 1): 29.67%; Pf_72h_%Growth_Rep2 ([1]; P. falciparum 3D7, 72 h, library screen at 2 μg/mL, % growth, replicate 2): 36.72%; Pf_120h_%Growth_Rep1 ([2]; P. falciparum 3D7, 120 h, library screen at 2 μg/mL, % growth, replicate 1): 2.62%; Pf_120h_%Growth_Rep2 ([2]; P. falciparum 3D7, 120 h, library screen at 2 μg/mL, % growth, replicate 2): 15.42%; Tg_72h_%Growth_Rep1 ([3]; T. gondii RH, 72 h, library screen at 2 μg/mL, % growth, replicate 1): 22.41%; Tg_72h_%Growth_Rep2 ([3]; T. gondii RH, 72 h, library screen at 2 μg/mL, % growth, replicate 2): 22.70%

Which results are given for C[C@@H]1Cc2c(Cl)cc(C(=O)N[C@@H](Cc3ccccc3)C(=O)O)c(O)c2C(=O)O1 [BIA-O1195]?
Pf_72h_%Growth_Rep1 [1, 10]: 84.32%; Pf_72h_%Growth_Rep2 [1, 11]: 95.25%; Pf_120h_%Growth_Rep1 [2, 12]: 103.82%; Pf_120h_%Growth_Rep2 [2, 13]: 136.40%; Tg_72h_%Growth_Rep1 [3, 14]: 120.41%; Tg_72h_%Growth_Rep2 [3, 15]: 95.09%

CCCCCCCCCC(=O)N[C@@H](Cc1c[nH]c2ccccc12)C(=O)N[C@H](CC(N)=O)C(=O)N[C@@H](CC(=O)O)C(=O)N[C@@H]1C(=O)NCC(=O)N[C@@H](CCCN)C(=O)N[C@@H](CC(=O)O)C(=O)N[C@H](C)C(=O)N[C@@H](CC(=O)O)C(=O)NCC(=O)N[C@H](CO)C(=O)N[C@@H]([C@H](C)CC(=O)O)C(=O)N[C@@H](CC(=O)c2ccccc2N)C(=O)O[C@@H]1C [Daptomycin] was tested. Which activity at 2 µg/mL [1, 4] did it give?
Its activity at 2 µg/mL is 88.5%.

And the activity at 2 µg/mL [1, 5]?
Its activity at 2 µg/mL is 114%.

What about the activity at 2 µg/mL [2, 6] of the same compound?
The activity at 2 µg/mL was 90.7%.

And the activity at 2 µg/mL [2, 7]?
Its activity at 2 µg/mL is 116%.

And the percent parasite growth at 2 µg/mL [3, 8]?
The percent parasite growth at 2 µg/mL was 132%.

What about the percent parasite growth at 2 µg/mL [3, 9] of the same compound?
The percent parasite growth at 2 µg/mL was 90.1%.

CC(=O)NCCc1ccc(O)cc1 [Acetyltyramine, N-] was tested. Which Pf_72h_%Growth_Rep1 [1, 16] did it give?
The Pf_72h_%Growth_Rep1 was 85.43%.

What about the Pf_72h_%Growth_Rep2 [1, 17] of the same compound?
Its Pf_72h_%Growth_Rep2 is 84.08%.

What about the Pf_120h_%Growth_Rep1 [2, 18] of the same compound?
The Pf_120h_%Growth_Rep1 was 85.62%.

What about the Pf_120h_%Growth_Rep2 [2, 19] of the same compound?
The Pf_120h_%Growth_Rep2 was 81.27%.

What about the Tg_72h_%Growth_Rep1 [3, 16] of the same compound?
The Tg_72h_%Growth_Rep1 was 171.49%.

What about the Tg_72h_%Growth_Rep2 [3, 17] of the same compound?
Its Tg_72h_%Growth_Rep2 is 89.14%.

C=C[C@]1(C)C[C@@H](O)[C@]2(C)[C@H](C)CC[C@]3(CCC(=O)[C@H]32)[C@@H](C)[C@@H]1O [BIA-M1333] was tested. Which Pf_72h_%Growth_Rep1 [1, 10] did it give?
The Pf_72h_%Growth_Rep1 was 79.79%.

And the Pf_72h_%Growth_Rep2 [1, 11]?
The Pf_72h_%Growth_Rep2 was 96.77%.

And the Pf_120h_%Growth_Rep1 [2, 12]?
The Pf_120h_%Growth_Rep1 was 84.29%.

And the Pf_120h_%Growth_Rep2 [2, 13]?
The Pf_120h_%Growth_Rep2 was 105.61%.

What about the Tg_72h_%Growth_Rep1 [3, 14] of the same compound?
The Tg_72h_%Growth_Rep1 was 107.76%.

What about the Tg_72h_%Growth_Rep2 [3, 15] of the same compound?
Its Tg_72h_%Growth_Rep2 is 90.41%.

With CCC[C@@H]1C[C@@H](C(=O)N[C@@H]([C@H]2O[C@H](SC)[C@H](OP(=O)(O)O)[C@@H](O)[C@H]2O)[C@H](C)Cl)N(C)C1 [Clindamycin 2-phosphate, reference compound] as the compound, how does the “1) Growth (%) at 72 h” value [1] read?
Its value is 67.91%.

And the Pf_72h_%Growth_Rep1 [1]?
The Pf_72h_%Growth_Rep1 was 73.78%.

And the Pf_72h_%Growth_Rep2 [1]?
The Pf_72h_%Growth_Rep2 was 62.04%.

What about the “2) Growth (%) at 120 h” value [2] of the same compound?
Its value is 9.80%.

And the “3) Fold change (72 h/120 h)” value [2]?
Its value is 6.9.

And the Pf_120h_%Growth_Rep1 [2]?
The Pf_120h_%Growth_Rep1 was 15.54%.

And the Pf_120h_%Growth_Rep2 [2]?
The Pf_120h_%Growth_Rep2 was 4.05%.

What about the Tg_72h_%Growth_Rep1 [3] of the same compound?
Its Tg_72h_%Growth_Rep1 is 25.11%.

And the Tg_72h_%Growth_Rep2 [3]?
The Tg_72h_%Growth_Rep2 was 20.67%.

For CCCCCCC(C)C/C(C)=C\C(/C=C(C)/C=C/C(O)C(C)(C)c1cc(O)c([C@@H]2O[C@H](CO)C[C@H](O)[C@H]2O)c(=O)o1)CO (stereo partly drawn) [Fusapyrone], which Pf_72h_%Growth_Rep1 [1, 16] is on record?
Its Pf_72h_%Growth_Rep1 is 90.44%.

And the Pf_72h_%Growth_Rep2 [1, 17]?
The Pf_72h_%Growth_Rep2 was 35.77%.

And the Pf_120h_%Growth_Rep1 [2, 18]?
Its Pf_120h_%Growth_Rep1 is 92.76%.

What about the Pf_120h_%Growth_Rep2 [2, 19] of the same compound?
The Pf_120h_%Growth_Rep2 was 105.39%.

What about the Tg_72h_%Growth_Rep1 [3, 16] of the same compound?
The Tg_72h_%Growth_Rep1 was 113.82%.

What about the Tg_72h_%Growth_Rep2 [3, 17] of the same compound?
The Tg_72h_%Growth_Rep2 was 93.81%.

How did the Pf_72h_%Growth_Rep1 [1, 16] turn out when CC(=O)O[C@H]1CCC2(C)C3=C(CCC2C1(C)C)[C@@]1(C)CC[C@@H](C(C)CCC=C(C)C)[C@]1(C)CC3 (stereo partly drawn) [Euphol acetate] was run?
The Pf_72h_%Growth_Rep1 was 66.07%.

And the Pf_72h_%Growth_Rep2 [1, 17]?
Its Pf_72h_%Growth_Rep2 is 91.20%.

What about the Pf_120h_%Growth_Rep1 [2, 18] of the same compound?
The Pf_120h_%Growth_Rep1 was 60.77%.

And the Pf_120h_%Growth_Rep2 [2, 19]?
The Pf_120h_%Growth_Rep2 was 92.36%.

And the Tg_72h_%Growth_Rep1 [3, 16]?
The Tg_72h_%Growth_Rep1 was 114.80%.

And the Tg_72h_%Growth_Rep2 [3, 17]?
The Tg_72h_%Growth_Rep2 was 105.35%.
